In patent publication US7282589B2, “Acid addition salt of optically active piperidine compound and process for preparing the same” (UBE Industries, Ltd., priority 1996, dated 2007):
Read-outs that look alike come from different tables or passages of the source.

How the values were obtained:
[1] = system: histamine-induced death; test: Protective effects on histamine-induced death; format: in vivo, Hartley male guinea pigs; details: for Survival ratio (%): p.o., 2 hours before 1.25 mg/kg histamine hydrochloride i.v.; for ED50: Cavia porcellus, po, obtained from the dose-response curve of Table 1
Experimental: By using Hartley male guinea pigs with a body weight of 250 to 550 g, protective effects on histamine-induced death were tested according to the method of Lands et al. (Journal of Pharmacological Experimental Therapy, vol. 95, p. 45, 1949 (A. M. Lands, J. O. Hoppe, O. H. Siegmund, and F. F. Luduena, J. Pharmacol. Exp. Ther., 95, 45 (1949))). Test animals were fasted overnight (about 14 hours), and then 5 ml/kg of a test substance was orally administrated. Two hours after administration of the test substance, 1.25 mg/kg of histamine hydrochloride was intravenously administrated to induce histamine shock. After induction, symptom of the test animals was observed and the histamine-shock appearing time was measured, and termination of respiration or restoration was also observed.

[2] = system: 7 days homologous PCA reaction; test: Inhibitory effect on 7 days homologous PCA reaction; format: in vivo, Hartley male guinea pigs; details: for Inhibitory ratio (%): p.o., 2 hours before antigen
Experimental: By using Hartley male guinea pigs with a body weight of 250 to 550 g, inhibitory effect on PCA reaction was tested according to the method of Levine et al. (Journal of Immunology, vol. 106, p. 29, 1971 (B. B. Levine, H. Chang, Jr., and N. M. Vaz, J. Immunol. 106, 29 (1971))). 0.05 ml of guinea pig anti-BPO.BGG-IgE serum diluted 32-fold with a physiological saline was hypodermically administrated to the guinea pig through two points of right and left sandwiching the median line of the back which had been shaved one day before.
After 7 days, 1 ml of a 1% Evans Blue physiological saline solution containing 500 μg of benzylpenicilloyl bovine serum albumin (BPO.BSA) was intravenously administrated to induce a PCA reaction. Thirty minutes later, exsanguination was carried out, and the skin was peeled off and the amount of the leaked dye was measured according to the method of Katayama et al. (Microbiological Immunology, vol. 22, p. 89, 1978 (S. Katayama, H. Shinoya and S. Ohtake, Microbiol. Immunol., 22, 89 (1978))). The test animals were fasted overnight (about 16 hours) and the test substances were orally administrated 2 hours before the administration of the antigen.

[3] = Stability test (40° C. and 75% relative humidity, one month); format: physicochemical; details: for physicochemical stability (conclusion in words): from the test results of Table 4
Experimental: After pulverizing the above-mentioned respective compounds, powder passed through a 500 μm sieve was made to be a test sample. Respective samples were divided and placed in glass Petri dishes and preserved at 40° C. and 75% relative humidity. One month later, the samples were taken out, and a weight of contained analogues and a content of (R)-isomer by racemization were measured and compared with those at the beginning of the test.
The sample was dissolved in a mobile phase and the solution was adjusted so as to contain about 0.1% of the sample per ml. With regard to 25 μl of the sample solution, percentages of the respective peak area were measured by a liquid chromatography using an automatic integration method.
About 5 mg of the sample was dissolved in the mobile phase and the solution was adjusted so as to contain about 0.1% of the sample per ml. With regard to 1.5 μl of the sample solution, percentages of the respective peak area were measured by a liquid chromatography using an automatic integration method, and an amount of the (R)-isomer (%) was calculated by the following equation.
[formula] • Q^S: percentage of peak area of (S)-isomer • Q^R: percentage of peak area of (R)-isomer Operation Conditions

[4] = Experiment 1: crystallization of acid addition salts of (S)-piperidine compound (I); format: physicochemical
Experimental: (S)-Piperidine compound of the formula (I) was dissolved in an organic solvent, and after adding an acid shown in Table 3 to make a uniform solution, the mixture was allowed to stand. When no precipitate is obtained, after the solvent was removed, a less polar solvent was added to the residue and the mixture was allowed to stand again. Except for the case where the acid addition salt is oily or syrupy, the obtained solid material was collected by filtration and dried under reduced pressure.

[5] = Pharmacological effects of the metabolite compared with the (S)-ester
[6] = 1 month later, 40° C. and 75% relative humidity

What does the source list for `CCOC(=O)CCCN1CCC(O[C@H](c2ccc(Cl)cc2)c2ccccn2)CC1.O=C(O)/C=C/C(=O)O` [(R)-ester, ethyl (R)-4-[4-[(4-chlorophenyl) (2-pyridyl)methoxy]piperidino]butanoate fumaric acid salt]?
Survival ratio (%) ([1]; 0.3 mg/kg): 0%; Survival ratio (%) ([1]; 0.6 mg/kg): 0%; Survival ratio (%) ([1]; 1.0 mg/kg): 50.0%; Survival ratio (%) ([1]; 3.0 mg/kg): 62.5%; Survival ratio (%) ([1]; 10.0 mg/kg): 100%; ED50 [1]: 1 mg/kg; Inhibitory ratio (%) ([2]; 0.3 mg/kg): −3.1%; Inhibitory ratio (%) ([2]; 1.0 mg/kg): 13.6%; Inhibitory ratio (%) ([2]; 3.0 mg/kg): 45.8%; Inhibitory ratio (%) ([2]; 10.0 mg/kg): 59.5%

Which results are given for `CCOC(=O)CCCN1CCC(O[C@@H](c2ccc(Cl)cc2)c2ccccn2)CC1.O=C(O)/C=C/C(=O)O` [(S)-ester, ethyl (S)-4-[4-[(4-chlorophenyl)(2-pyridyl)methoxy]piperidino]butanoate fumaric acid salt]?
Survival ratio (%) ([1]; 0.01 mg/kg): 0%; Survival ratio (%) ([1]; 0.02 mg/kg): 42.9%; Survival ratio (%) ([1]; 0.03 mg/kg): 62.5%; Survival ratio (%) ([1]; 0.06 mg/kg): 100%; Survival ratio (%) ([1]; 0.1 mg/kg): 100%; ED50 [1]: 0.023 mg/kg; potency relative to the (R)-ester ([1]; ratio of ED50 values): about 43 fold; Inhibitory ratio (%) ([2]; 0.01 mg/kg): 37.3%; Inhibitory ratio (%) ([2]; 0.02 mg/kg): 46.3%; Inhibitory ratio (%) ([2]; 0.03 mg/kg): 56.9%; Inhibitory ratio (%) ([2]; 0.06 mg/kg): 63.4%; Inhibitory ratio (%) ([2]; 0.1 mg/kg): 58.8%; potency relative to the (R)-ester ([2]; compared at the dose which inhibits 50% of the maximum value (i.e., 35%)): ≥ 100 fold; Amount of moisture absorption [3, 6]: 0.45%; Content of (R)-isomer [3, 6]: 1.15%; Content of analogue substance [3, 6]: 2.65%; Content of (R)-isomer ([3]; Beginning): 0.87%; Content of analogue substance ([3]; Beginning): 1.72%; hygroscopicity (in words) ([3]; as shown in the stability test results (Table 4)): hygroscopic; physicochemical stability (conclusion in words) [3]: physicochemically unstable

For `O=C(O)CCCN1CCC(O[C@@H](c2ccc(Cl)cc2)c2ccccn2)CC1.O=S(=O)(O)c1ccccc1` [Benzenesulfonic acid salt, (S)-4-[4-[(4-chlorophenyl)(2-pyridyl)-methoxy]piperidino]butanoic acid monobenzenesulfonic acid salt], which “Amount of moisture absorption” value [3, 6] is on record?
The value was 0.18%.

And the “Content of (R)-isomer” value [3, 6]?
Its value is 0.39%.

And the “Content of analogue substance” value [3, 6]?
The value was 0.16%.

And the “Content of (R)-isomer” value ([3]; Beginning)?
Its value is 0.37%.

What about the “Content of analogue substance” value ([3]; Beginning) of the same compound?
The value was 0.15%.

And the “physicochemical stability (conclusion in words)” value [3]?
Its value is “excellent physicochemical stabilities”.

What about the “Characteristics of acid addition salt” value [4] of the same compound?
The value was “non-hygroscopic crystals”.

Which results are given for `O=C(O)CCCN1CCC(O[C@@H](c2ccc(Cl)cc2)c2ccccn2)CC1.O=C(O)c1ccccc1` [Benzoic acid salt, (S)-4-[4-[(4-chlorophenyl)(2-pyridyl)-methoxy]piperidino]butanoic acid monobenzoic acid salt]?
Amount of moisture absorption [3, 6]: 0.05%; Content of (R)-isomer [3, 6]: 0.40%; Content of analogue substance [3, 6]: 1.20%; Content of (R)-isomer ([3]; Beginning): 0.37%; Content of analogue substance ([3]; Beginning): 1.20%; physicochemical stability (conclusion in words) [3]: excellent physicochemical stabilities; Characteristics of acid addition salt [4]: non-hygroscopic crystals

Which “pharmacological effects compared with the (S)-ester” value [5] does the source give for `O=C(O)CCCN1CCC(O[C@@H](c2ccc(Cl)cc2)c2ccccn2)CC1` [Example 1, (S)-4-[4-[(4-chlorophenyl)(2-pyridyl)-methoxy]piperidino]butanoic acid] here?
Its value is “substantially shows the same pharmacological effects as the (S)-ester”.

With `C[C@H](O)C(=O)O` [L-Lactic acid] as the compound, how does the “Characteristics of acid addition salt” value ([4]; acid molar ratio 1) read?
Its value is “Oily product”.
